How the values were obtained:
MDBK (NBL-1) cells = experiment: MTT assay for cytotoxicity; format: cell-based, bovine; conditions: 0-7.5 μmol/L, 48 h
Protocol: The drug-containing medium is added and further incubated for 48 h. MTT is added (5 mg/mL) at 20 μL/well and cultured for 4 h, the supernatant is discarded and 150 μL DMSO is added, then the plate is shaken for 10 minutes and the absorbance is determined using a microplate reader using the wavelength 570 nm and a reference wavelength 450 nm. The cell survival rate is calculated after treatment of compounds: cell survival rate (%)=drug group A value/cell control group A value×100%, and the results are shown in FIG. 10. Cell proliferation inhibition rate (%)=100%−survival rate (%), half maximal (50%) toxic concentration (TC50) is calculated according to Reed-Muench method.

[1] = test system: mice with carbon tetrachloride induced liver damage; experiment: Carbon tetrachloride induced chemical liver damage model in mice; format: in vivo, Kunming mice
Protocol: Kunming mice of clean grade (male, weight 20±2 g), after adaptively fed for 3 days, are randomly divided into normal group, model group, bifendate positive control group (200 mg/kg), AD group (0.88 mmol/kg), low dosage group (0.66 mmol/kg) and high dosage group (0.88 mmol/kg) of compound A, B, C and D, with 8 mice in each group. Positive group and each test group are intragastrically given with respective suspension prepared with 0.5% CMC-Na, and normal group and model group are given with 0.5% CMC-Na. The drugs are given for 3 days, and 1 h after the last administration, all mice except those in the normal group are intraperitoneally injected with a single dose of 0.3% carbon tetrachloride in peanut oil (0.1 mL/10 g). After 16 h, the eyeball of the mice in each group is enucleated to collect blood, which is centrifuged at 3000 rpm for 15 min to separate serum. ALT and AST activities are tested respectively (Nanjing Jiancheng Bioengineering Institute). The left lobe of liver is taken to prepare 10% homogenate using physiological saline, MDA (Nanjing Jiancheng Bioengineering Institute) and PGE2 contents are determined. Experimental data are expressed as average±standard deviation (X±s), analyzed with SPSS 11.5 statistic software, with P<0.05 meaning there is a significant difference. Other agents, drugs and experimental methods are the same as in EXAMPLE 1. In experimental investigation of both models, the following grouping method is used: Kunming mice of clean grade (male, weight 20±2 g) are randomly divided into normal group, model group, bifendate group (200 mg/kg), AD group (0.88 mmol/kg), low dosage group (0.66 mmol/kg) and high dosage group (0.88 mmol/kg) of compound E, with 8 mice in each group. Other agents, drugs and experimental methods are the same as in EXAMPLE 1 and in EXAMPLE 4, respectively.

[2] = test system: mice with ethanol induced liver damage; experiment: Ethanol induced liver damage model in mice; format: in vivo, Kunming mice
Protocol: Kunming mice of clean grade (male, weight 20±2 g), after adaptively fed for 3 days, are randomly divided into normal group, model group, bifendate positive control group (200 mg/kg), AD group (0.88 mmol/kg), low (0.44 mmol/kg), median (0.66 mmol/kg) and high (0.88 mmol/kg) dosage groups of compound A, and median (0.66 mmol/kg) and high (0.88 mmol/kg) dosage groups of compound B, with 8 mice in each group. Positive group and each test group are intragastrically given with respective suspension prepared with 0.5% CMC-Na, and normal group and model group are given with 0.5% CMC-Na. The drugs are given for 3 days, and 1 h after the last administration, all mice except those in the normal group are intragastrically administrated with a single dose of 50% EtOH ([…]). After 16 h, the eyeball of the mice in each group is enucleated to collect blood, which is centrifuged at 3000 rpm for 15 min to separate serum. ALT and AST activities are tested respectively (Nanjing Jiancheng Bioengineering Institute). The left lobe of liver is taken to prepare 10% homogenate using physiological saline, MDA (Nanjing Jiancheng Bioengineering Institute) content is determined. Experimental data are expressed as average±standard deviation (X±s), analyzed with SPSS 11.5 statistic software, with P<0.05 meaning there is a significant difference. Other agents, drugs and experimental methods are the same as in EXAMPLE 1.

[3] = dosage groups not distinguished (0.66 and 0.88 mmol/kg), P<0.01
[4] = dosage groups not distinguished, P<0.01
[5] = high dosage 0.88 mmol/kg vs AD 0.88 mmol/kg, P<0.05
[6] = high dosage 0.88 mmol/kg, P<0.05
[7] = low dosage 0.66 mmol/kg vs AD 0.88 mmol/kg, P<0.05

## C=C1CCC2C(C)(CO)C(O)CCC2(C)C1C=CC1=CC(=Cc2ccc(Cl)cc2)OC1=O (stereo not shown) [Compound A]
MDBK (NBL-1) cells
  cytotoxicity to MDBK cells: do not show obvious cytotoxcity
[1]; [3]
  ALT activity in serum vs model group: notably suppress the increase
  AST activity in serum vs model group: notably suppress the increase
[1]; [4]
  MDA level in liver homogenate vs model group: effectively reduce
  PGE2 level in liver homogenate vs model group: effectively reduce
[1]; [5]
  magnitude of decrease in ALT activity compared to AD group: significantly better
  magnitude of decrease in AST activity compared to AD group: significantly better
[1]; [6]
  PGE2 content compared to AD group: notably lower
  ability to reduce lipid peroxide level in liver homogenate compared to AD group: stronger ability to reduce the lipid peroxide level
[1]; [7]
  magnitude of decrease in ALT activity compared to AD group: significantly better
  magnitude of decrease in AST activity compared to AD group: significantly better
[1]; low dosage 0.66 mmol/kg, P<0.05
  ability to reduce lipid peroxide level in liver homogenate compared to AD group: stronger ability to reduce the lipid peroxide level
[1]; mice, intragastric, 3 days
  protective effect against liver damage induced by carbon tetrachloride (summary): protective effect
[2]; [4]
  ALT activity in serum vs model group: effectively suppress
  AST activity in serum vs model group: effectively suppress
  MDA content in liver homogenate vs model group: effectively reduce the MDA content
[2]; high dosage 0.88 mmol/kg, P<0.01
  AST activity decreasing magnitude compared with AD group: notably larger
[2]; high dosage 0.88 mmol/kg, P<0.01 (A), P<0.05 (B)
  ALT activity decreasing magnitude compared with AD group: notably larger
[2]; mice, intragastric, 3 days
  protective effect against liver damage induced by ethanol (summary): protective effect

From patent US9636324B2, “Use of 15-benzylidence-14-deoxy-11, 12 -dehyroandrographolide derivative in manufacture of medicaments for protecting liver and anti-hepatitis C virus” (Zhengzhou University, priority 2012, dated 2017)
